Source: the supplement of paper PMC12076712

What was measured:
Experiment in all cases: pIC50, kinobeads binding competition
Conditions in all cases: cell material: Jurkat lysate
NEK3 = target: T1, NEK3 (UniProt P51956)
T1 sequence (whole entry): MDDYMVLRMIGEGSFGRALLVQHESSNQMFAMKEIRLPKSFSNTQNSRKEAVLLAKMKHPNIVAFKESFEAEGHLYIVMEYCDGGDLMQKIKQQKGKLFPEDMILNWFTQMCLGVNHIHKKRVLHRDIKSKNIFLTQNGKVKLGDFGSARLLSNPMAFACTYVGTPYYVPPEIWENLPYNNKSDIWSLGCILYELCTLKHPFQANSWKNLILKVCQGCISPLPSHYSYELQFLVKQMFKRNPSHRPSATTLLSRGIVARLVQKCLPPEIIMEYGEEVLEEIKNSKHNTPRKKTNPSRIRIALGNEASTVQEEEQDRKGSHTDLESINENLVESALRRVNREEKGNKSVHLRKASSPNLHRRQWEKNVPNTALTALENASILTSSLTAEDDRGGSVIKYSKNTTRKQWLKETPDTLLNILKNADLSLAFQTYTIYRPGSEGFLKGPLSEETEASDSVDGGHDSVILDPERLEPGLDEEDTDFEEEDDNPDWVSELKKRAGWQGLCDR

EPHA3 = target: T2, EPHA3 (UniProt P29320)
T2 sequence (whole entry): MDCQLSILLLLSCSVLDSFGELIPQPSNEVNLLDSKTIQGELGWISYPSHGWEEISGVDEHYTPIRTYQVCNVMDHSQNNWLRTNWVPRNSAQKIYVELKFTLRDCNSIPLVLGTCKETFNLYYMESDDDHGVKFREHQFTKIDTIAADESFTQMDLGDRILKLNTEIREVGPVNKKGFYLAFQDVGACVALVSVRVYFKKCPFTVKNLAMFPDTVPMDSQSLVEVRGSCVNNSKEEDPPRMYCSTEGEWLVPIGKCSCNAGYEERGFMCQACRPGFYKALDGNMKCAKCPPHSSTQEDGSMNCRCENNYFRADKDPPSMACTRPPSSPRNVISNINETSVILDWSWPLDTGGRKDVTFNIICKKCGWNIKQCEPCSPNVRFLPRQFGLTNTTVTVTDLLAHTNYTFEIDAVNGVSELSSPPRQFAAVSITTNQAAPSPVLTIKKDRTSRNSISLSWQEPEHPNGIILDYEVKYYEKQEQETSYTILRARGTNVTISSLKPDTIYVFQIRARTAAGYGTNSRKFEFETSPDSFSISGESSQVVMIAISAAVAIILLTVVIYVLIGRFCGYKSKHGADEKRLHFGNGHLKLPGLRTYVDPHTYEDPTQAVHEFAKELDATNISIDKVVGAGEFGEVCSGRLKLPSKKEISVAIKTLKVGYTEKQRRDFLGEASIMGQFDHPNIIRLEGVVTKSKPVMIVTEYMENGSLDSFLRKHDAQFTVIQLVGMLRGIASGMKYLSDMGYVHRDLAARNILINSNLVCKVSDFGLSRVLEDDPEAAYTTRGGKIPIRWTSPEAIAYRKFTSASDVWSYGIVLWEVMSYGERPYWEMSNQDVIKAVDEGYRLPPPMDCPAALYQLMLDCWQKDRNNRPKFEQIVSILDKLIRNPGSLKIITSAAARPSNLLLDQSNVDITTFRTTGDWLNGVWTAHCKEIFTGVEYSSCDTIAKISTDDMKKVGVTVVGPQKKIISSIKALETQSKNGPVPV

UniProt Q99683 = target: T3, UniProt Q99683
T3 sequence (whole entry): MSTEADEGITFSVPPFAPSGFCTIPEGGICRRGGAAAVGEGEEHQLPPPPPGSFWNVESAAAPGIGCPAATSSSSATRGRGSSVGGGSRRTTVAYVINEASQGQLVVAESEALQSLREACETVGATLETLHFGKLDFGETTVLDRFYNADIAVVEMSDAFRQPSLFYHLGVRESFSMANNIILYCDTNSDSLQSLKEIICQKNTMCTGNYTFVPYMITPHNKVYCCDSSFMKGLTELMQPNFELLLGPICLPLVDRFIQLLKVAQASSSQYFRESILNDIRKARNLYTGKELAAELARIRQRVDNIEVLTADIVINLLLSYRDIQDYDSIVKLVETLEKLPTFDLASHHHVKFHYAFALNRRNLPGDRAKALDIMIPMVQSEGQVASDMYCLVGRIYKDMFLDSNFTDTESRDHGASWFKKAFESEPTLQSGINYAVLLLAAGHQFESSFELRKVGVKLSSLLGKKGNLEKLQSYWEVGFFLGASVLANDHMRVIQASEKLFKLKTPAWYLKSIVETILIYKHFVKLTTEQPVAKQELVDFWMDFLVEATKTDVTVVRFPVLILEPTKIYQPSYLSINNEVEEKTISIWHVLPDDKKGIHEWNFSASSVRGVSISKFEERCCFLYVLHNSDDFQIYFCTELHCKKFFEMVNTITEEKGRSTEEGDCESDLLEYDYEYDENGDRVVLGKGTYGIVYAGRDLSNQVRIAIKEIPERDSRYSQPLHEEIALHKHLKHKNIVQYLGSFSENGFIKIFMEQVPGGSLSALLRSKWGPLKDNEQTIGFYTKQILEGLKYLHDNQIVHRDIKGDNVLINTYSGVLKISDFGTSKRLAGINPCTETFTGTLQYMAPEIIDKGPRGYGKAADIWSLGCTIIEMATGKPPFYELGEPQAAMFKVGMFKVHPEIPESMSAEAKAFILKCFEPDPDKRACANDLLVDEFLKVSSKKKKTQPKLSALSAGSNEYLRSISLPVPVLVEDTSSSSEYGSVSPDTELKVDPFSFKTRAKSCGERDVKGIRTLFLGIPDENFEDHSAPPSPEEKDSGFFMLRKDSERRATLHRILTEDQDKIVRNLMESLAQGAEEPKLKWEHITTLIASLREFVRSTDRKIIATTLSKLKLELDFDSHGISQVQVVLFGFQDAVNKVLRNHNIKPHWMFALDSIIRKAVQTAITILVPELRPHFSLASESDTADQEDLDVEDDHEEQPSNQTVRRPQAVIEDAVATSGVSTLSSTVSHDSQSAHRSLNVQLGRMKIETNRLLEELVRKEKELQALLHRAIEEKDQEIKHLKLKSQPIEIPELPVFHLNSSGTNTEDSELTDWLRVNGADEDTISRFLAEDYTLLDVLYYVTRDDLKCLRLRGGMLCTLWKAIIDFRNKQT

RAF1 = RAF1 (UniProt P04049)
PRKCH = PRKCH (UniProt P24723)
UniProt Q9Y2K2 = target: UniProt Q9Y2K2
LIMK2 = LIMK2 (UniProt P53671)
UniProt Q9P289 = target: UniProt Q9P289

Measured: pIC50

Chain of UniProt Q9P289 (Q9P289 whole entry, looked up): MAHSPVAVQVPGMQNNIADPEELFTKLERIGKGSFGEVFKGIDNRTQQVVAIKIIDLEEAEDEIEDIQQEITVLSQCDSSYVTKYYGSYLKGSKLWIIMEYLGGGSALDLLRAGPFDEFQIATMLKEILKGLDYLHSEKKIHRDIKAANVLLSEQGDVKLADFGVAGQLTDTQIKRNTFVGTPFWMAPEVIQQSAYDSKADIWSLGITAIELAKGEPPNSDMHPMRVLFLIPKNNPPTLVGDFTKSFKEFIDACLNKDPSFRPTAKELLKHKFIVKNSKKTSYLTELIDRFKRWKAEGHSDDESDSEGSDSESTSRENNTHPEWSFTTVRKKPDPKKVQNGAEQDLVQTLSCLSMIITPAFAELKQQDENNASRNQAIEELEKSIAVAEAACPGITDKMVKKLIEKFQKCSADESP
Chain of UniProt Q9Y2K2 (Q9Y2K2 whole entry, looked up): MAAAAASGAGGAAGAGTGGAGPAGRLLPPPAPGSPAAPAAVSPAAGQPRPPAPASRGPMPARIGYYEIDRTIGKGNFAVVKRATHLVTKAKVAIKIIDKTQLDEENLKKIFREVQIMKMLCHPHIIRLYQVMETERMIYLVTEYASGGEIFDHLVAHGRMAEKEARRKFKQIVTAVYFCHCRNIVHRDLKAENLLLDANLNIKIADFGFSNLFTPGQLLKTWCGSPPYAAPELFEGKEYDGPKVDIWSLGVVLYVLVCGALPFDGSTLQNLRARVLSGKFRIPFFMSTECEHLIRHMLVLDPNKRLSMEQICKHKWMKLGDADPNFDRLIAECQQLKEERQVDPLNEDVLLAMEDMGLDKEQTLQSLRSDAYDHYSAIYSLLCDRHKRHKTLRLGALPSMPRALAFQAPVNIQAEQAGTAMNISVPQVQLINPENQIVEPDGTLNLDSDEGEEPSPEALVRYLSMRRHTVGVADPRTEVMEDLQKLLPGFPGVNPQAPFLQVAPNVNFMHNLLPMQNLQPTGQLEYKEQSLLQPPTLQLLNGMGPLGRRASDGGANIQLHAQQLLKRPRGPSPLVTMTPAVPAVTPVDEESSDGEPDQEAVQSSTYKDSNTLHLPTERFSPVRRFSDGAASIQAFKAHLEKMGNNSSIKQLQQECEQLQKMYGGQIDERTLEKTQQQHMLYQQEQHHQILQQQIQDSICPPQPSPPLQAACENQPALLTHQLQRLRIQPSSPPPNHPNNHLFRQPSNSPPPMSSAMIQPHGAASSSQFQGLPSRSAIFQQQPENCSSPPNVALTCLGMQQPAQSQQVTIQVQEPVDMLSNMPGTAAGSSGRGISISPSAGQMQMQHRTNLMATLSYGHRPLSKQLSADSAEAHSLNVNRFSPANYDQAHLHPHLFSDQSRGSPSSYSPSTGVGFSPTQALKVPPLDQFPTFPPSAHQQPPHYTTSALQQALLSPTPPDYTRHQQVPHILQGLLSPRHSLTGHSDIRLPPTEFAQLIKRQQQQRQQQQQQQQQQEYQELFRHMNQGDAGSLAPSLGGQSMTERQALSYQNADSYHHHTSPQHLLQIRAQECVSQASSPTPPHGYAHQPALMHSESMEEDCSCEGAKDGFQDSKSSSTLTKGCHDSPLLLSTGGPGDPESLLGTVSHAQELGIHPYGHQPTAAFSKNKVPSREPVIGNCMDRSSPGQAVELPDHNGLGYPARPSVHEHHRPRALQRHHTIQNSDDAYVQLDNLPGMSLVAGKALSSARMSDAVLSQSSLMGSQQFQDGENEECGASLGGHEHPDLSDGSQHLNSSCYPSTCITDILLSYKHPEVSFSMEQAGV
Chain of RAF1 (P04049 whole entry): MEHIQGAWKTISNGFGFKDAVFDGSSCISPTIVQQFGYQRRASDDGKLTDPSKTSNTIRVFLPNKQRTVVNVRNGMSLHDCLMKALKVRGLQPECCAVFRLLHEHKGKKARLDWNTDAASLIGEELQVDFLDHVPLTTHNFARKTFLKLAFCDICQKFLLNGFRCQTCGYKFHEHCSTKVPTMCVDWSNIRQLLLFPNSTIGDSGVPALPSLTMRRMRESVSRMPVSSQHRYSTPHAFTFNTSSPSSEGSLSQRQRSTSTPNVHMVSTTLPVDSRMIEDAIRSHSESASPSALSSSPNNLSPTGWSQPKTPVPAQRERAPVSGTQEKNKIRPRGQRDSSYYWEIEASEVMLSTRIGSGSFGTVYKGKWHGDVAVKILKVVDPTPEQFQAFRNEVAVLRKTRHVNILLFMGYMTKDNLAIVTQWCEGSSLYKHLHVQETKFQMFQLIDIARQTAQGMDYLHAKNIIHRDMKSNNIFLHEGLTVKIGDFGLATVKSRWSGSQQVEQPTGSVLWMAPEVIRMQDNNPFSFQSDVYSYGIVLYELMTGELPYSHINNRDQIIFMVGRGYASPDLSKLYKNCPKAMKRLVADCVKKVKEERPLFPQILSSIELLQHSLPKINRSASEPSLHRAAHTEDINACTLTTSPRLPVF
Chain of PRKCH (P24723 whole entry, looked up): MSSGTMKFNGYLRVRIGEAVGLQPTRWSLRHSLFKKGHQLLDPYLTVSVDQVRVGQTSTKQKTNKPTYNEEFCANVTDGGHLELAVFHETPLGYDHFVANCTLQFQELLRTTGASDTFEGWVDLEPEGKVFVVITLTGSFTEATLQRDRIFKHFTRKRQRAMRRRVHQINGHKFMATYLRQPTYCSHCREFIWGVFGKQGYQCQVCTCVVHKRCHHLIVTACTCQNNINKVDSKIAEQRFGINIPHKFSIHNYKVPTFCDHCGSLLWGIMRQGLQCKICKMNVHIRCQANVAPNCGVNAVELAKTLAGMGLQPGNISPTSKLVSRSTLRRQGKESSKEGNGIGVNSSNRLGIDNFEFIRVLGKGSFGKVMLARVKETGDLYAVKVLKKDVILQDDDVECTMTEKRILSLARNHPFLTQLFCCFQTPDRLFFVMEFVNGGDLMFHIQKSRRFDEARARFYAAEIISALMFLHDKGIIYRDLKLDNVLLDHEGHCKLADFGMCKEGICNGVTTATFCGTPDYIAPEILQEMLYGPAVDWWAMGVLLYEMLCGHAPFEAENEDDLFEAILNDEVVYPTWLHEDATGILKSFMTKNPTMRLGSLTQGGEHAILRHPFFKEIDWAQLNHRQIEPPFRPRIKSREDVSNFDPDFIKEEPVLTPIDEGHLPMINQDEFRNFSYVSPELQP
Chain of LIMK2 (P53671 whole entry, looked up): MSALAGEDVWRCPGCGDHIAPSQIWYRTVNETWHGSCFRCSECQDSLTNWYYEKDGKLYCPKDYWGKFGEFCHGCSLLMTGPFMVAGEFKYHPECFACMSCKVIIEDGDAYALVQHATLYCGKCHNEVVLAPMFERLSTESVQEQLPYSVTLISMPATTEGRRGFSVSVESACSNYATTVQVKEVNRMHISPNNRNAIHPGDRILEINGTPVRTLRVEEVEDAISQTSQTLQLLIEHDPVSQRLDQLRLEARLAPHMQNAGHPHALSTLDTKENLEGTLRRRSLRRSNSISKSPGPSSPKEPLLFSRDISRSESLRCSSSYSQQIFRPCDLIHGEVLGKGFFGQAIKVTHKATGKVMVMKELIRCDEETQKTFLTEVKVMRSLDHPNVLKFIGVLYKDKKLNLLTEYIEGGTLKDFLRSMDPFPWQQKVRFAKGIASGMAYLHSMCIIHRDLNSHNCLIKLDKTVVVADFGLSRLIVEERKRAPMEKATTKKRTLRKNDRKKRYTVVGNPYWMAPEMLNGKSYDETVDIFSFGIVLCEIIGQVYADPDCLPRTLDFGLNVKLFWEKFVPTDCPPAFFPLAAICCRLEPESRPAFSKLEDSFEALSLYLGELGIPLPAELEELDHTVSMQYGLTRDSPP

CCc1cnn2c(NCc3ccc[n+]([O-])c3)cc(N3CCCC[C@H]3CCO)nc12 [dinaciclib]
< 4.52: NEK3 | EPHA3 | UniProt Q99683 | RAF1 | PRKCH | UniProt Q9Y2K2 | LIMK2 | UniProt Q9P289
